Measured values from patent US5849900A, “Inhibition of viruses by antisense oligomers capable of binding to polypurine rich tract of single-stranded RNA or RNA-DNA hybrids” (Max-Planck-Gesellschaft zur Forderung der Wissenschafter …, priority 1995, dated 1998).

Columns and labels:
RT = assay: Inhibition of the RT by TFO-A variants; format: biochemical, HIV-1
Source text: Through these studies, it was learned that the two bulges are essential for protection of RNA and that the overhanging 5'- and 3'-ends can be shortened. Variances numbered 5037 (SEQ ID NO:26) and 5074 (SEQ ID NO:21) inhibited cleavage to 50% at 50-fold molar excess of the oligonucleotide over the template, i.e., about one μM oligonucleotide.

[1] = test system: PPT region of single-stranded RNA; RNase H; assay: Protection of single-stranded RNA from RNase H cleavage by chimeric oligonucleotides 5'-A-B-C-3' (Example 4); format: biochemical, HIV-1; settings: for oligonucleotide concentration that inhibited cleavage to 50%: 50-fold molar excess of the oligonucleotide over the template
Method: Chimeric oligonucleotides of the basic formula 5'-A-B-C-3' were tested with single-stranded RNA in a two-strand system. […] (Personal communication.) Average protection from cleavage was about 50%.
Protection from RNase H was monitored as above. Specifically, protection was monitored in vitro using RNA which was radioactively labeled at its 5'-end. Cleavage was analyzed on a sequencing gel. Cleavage within the PPT region of the RNA leads to a band of about 80 nucleotides. Protection from cleavage results in an uncleavaged full-length RNA. The amount of cleaved versus uncleaved RNA was monitored by phosphoimager.

[2] = test system: PPT of HIV-1 viral RNA (pKJ2 RNA); assay: cDNA elongation / premature termination of cDNA synthesis on single-stranded viral RNA (Example 1); format: biochemical; settings: antisense oligonucleotide hybridized with single-stranded HIV-1 RNA; HIV-1 RT
Method: HIV-1 viral RNA was transcribed in vitro from a construct containing a T7 promoter along with the PPT, which consists of the sequence: AAAAGAAAAGGGGGGA (SEQ ID NO: 1) or […] (SEQ ID NO: 2) when extended within the 3' LTR and 2 non-purines are included. The viral RNA, corresponding to pKJ2, consisted of 134 nucleotides. A ^32 P end-labeled antisense oligonucleotide was hybridized with the RNA. The cDNA reaction products were analyzed on 10% polyacrylamide TEE-urea gels. Details of the procedure are as follows:
To the standard reaction mixture described in Example 2 below were added a 125 μM quantity of one of the ddNTPs and each of the other three dNTPS and 4 units of HIV-1RT. The reactions were started by the addition of approximately 3 pmol of hybrid RNA (low specific activity) and treated as described above. To check for cDNA elongation, the same test was carried out, except with unlabeled in vitro transcribed RNA hybridized to a 10:1 mixture of unlabeled to labeled oligonucleotide. Aliquots were analyzed by electrophoresis on 10% TEE-urea-polyacrylamide gels.
The RNase H reaction was carried out in a total volume of 500 μL in RNase H buffer containing 1000 units of RNasin and 25 units of HIV-1RT/RNase H. After the reaction was started by the addition of 8 pmol of an unlabeled RNA-DNA oligonucleotide hybrid, the sample was divided into five aliquots of 100 μL and incubated for 30 minutes at 37° C., and the reaction was stopped at 95° C. for 5 minutes. The samples were placed on ice and to each was added 10 units of DNase I to remove the DNA oligonucleotide. After 10 minutes, the samples were incubated further at 37° C. for 10 minutes. The reactions were stopped at 95° C. for 10 minutes. […] Aliquots were analyzed by electrophoresis on an 8% TBE-urea-polyacrylamide gel together with dideoxy sequencing ladders generated with the same ^32 P-end-labeled DNA oligonucleotide primer on a single-stranded M13 DNA template harboring the corresponding DNA fragment. […]

[3] = test system: pKJ2 RNA hybridized with 40-mer deoxyribonucleotide complementary to the PPT region; RNase H; assay: RNase H cleavage inhibition on pKJ2 RNA-DNA hybrid, phosphoimager quantitation (Example 3); format: biochemical, HIV-1; settings: for IC50: range of concentrations, FIG. 4, phosphoimager, read-out: concentration that inhibited the RNase H by 50%
Method: In vitro transcribed, 5'end-labeled pKJ2 RNA of 134 nucleotides in length was hybridized with a 10-fold excess of a 40-mer deoxyribonucleotide complementary to the PPT region. Volkmann, et al., Biochimie, 1993, 75, 71-78. Hybridizations were carried out in 25 mM Tris-acetate buffer (pH 6.8) containing 50 mM NaCl, 10 mM β-mercapotoethanol and 0.4 mM spermine hydrochloride. The mixture was incubated for 3 minutes at 90° C., then cooled slowly to room temperature. For triplex-formation, 1 pmol hybrid substrate was incubated with either 10 or 100 pmol oligodeoxynucleotide overnight at 37° C. Finally, each sample was treated with 12 ng enzyme in 10 microliters RNase H-standard buffer (see Example 2) for 30 minutes at 37° C. RNase H cleavage reaction was stopped by incubation at 96° C. for 2 minutes. Samples were ethanol-precipitated and analyzed on 10% polyacrylamide-TEE-urea gel. The gel was visualized by autoradiography and analyzed with a phosphoimager (Molecular Dynamics). GT purine-pyrimidine mixed DNA oligonucleotides and RNA oligonucleotides were analyzed and compared with a 25-mer pyrimidine sequence in parallel (Seq ID No: 3) and antiparallel (Seq ID No: 42) orientation. To quantitate the effects of the oligonucleotides, the amounts of uncut RNA were determined. The oligonucleotides tested are listed below:
Oligonucleotides GT1, GT2, and GU1 were tested further at a range of concentrations. The concentrations of the remaining materials were as previously. The quantitative plots of phosphoimager results for GT1, GT2, and GU1 are depicted in FIG. 4. GT1 inhibited the RNase H by 50% at 5.0 μM, and GU1 inhibited 50% at 0.5 μM.

[4] = 1 pmol hybrid with 10 or 100 pmol oligonucleotide

Substance: 5037: TFO-A variant, sequence shown only as drawing in Table 6 (TTTTCTTTTGGGGGGTTTGGTTGGGTTTTCCCTTCCAGTCCCCCCTTTTCTTTT; chemistry not given here) [compound 5037]
- concentration at which ninety-five percent inhibition of the RT occurred (RT): about 25 μM
- oligonucleotide concentration that inhibited cleavage to 50% [1]: about one

Substance: TFO F1: TFO F derivative that formed a pseudocircle due to a complementary tail (GCATGCCCTTTTCTTTTCCCCCCTTTTTTCCCCCCTTTTCTTTTCCGCATGC; forms pseudocircle through self-complementary tail, further chemistry not given here)
- inhibition of RNase H [1]: about 80%

Substance: Us Us Us Us Cs Us Us Us Us Cs Cs Cs Cs Cs Cs Us TTTTTCCCCC TTTTCTTTT (UUUUCUUUUCCCCCCUTTTTTCCCCCCTTTTCTTTT; phosphorothioate backbone, chemistry not fully specified) [Rs RD]
- protection from cleavage ([1]; at equimolar concentration): One hundred percent
- inhibition (protection from RNase H) ([1]; at the same concentration as the phosphodiester): 100%

Substance: CCGCCCAGGCCACGCCTCCC (chemistry not given here) [SEQ ID NO: 11, control antisense 20-mer outside the PPT region, reference compound]
- blocking of cDNA synthesis (inhibition of cDNA elongation) [2]: 20-50%

Substance: AGTCCCCCCTTTTCTTTTAA (chemistry not given here) [SEQ ID NO: 10, antisense 20-mer covering the PPT]
- blocking of cDNA synthesis (inhibition of cDNA elongation) [2]: 100%

Substance: TTTTCTTTTGGGGGGTTTGGTTGGGTTTTCCCTTCCAGTCCCCCCTTTTCTTTT (chemistry not given here) [TFO A, 54-mer, partially self-complementary, hairpin-type stem-looped structure]
- inhibition of cleavage (in words) ([1]; at concentrations less than one nanomolar, in vitro): completely inhibited cleavage

Substance: TTTTGTTTTGGGGGGTGTGGTTGGG (chemistry not given here) [TFO 1', 25-mer GT triplex-forming oligonucleotide]
- IC50 [3]: 5000 nM

Substance: TGAATTAGCCCTTCCAGTCCCCCCTTTTCTTTTAAAAAGT (chemistry not given here) [SEQ ID NO: 9, antisense 40-mer covering the PPT]
- blocking of cDNA synthesis (inhibition of cDNA elongation) [2]: 100%

Substance: UUUUGUUUUGGGGGGUGUGGUUGGG (chemistry not given here) [GU1, the RNA oligonucleotide tested]
- inhibition of RNase H [3, 4]: ~100%
- IC50 [3]: 500 nM

Substance: CCCTTCCAGTCCCCCCTTTTCTTTT (chemistry not given here) [PY2]
- inhibition of RNase H (degree, in words) [3, 4]: lowest degree of inhibition

Substance: AGGGGATTTGGTTGGGTTTTCCCTTCCAGTCCCCC (chemistry not given here) [compound 5074, TFO-A variant]
- concentration at which ninety-five percent inhibition of the RT occurred (RT): about 25 μM
- oligonucleotide concentration that inhibited cleavage to 50% [1]: about one
